Measurements published in ChEMBL document CHEMBL2346659, “Anti-adipogenic diarylheptanoids from Alnus hirsuta f. sibirica on 3T3-L1 cells” (Bioorg Med Chem Lett, 2013).
Activity calls are given as the source filed them. No cut-off for these calls is given here.

Assays:
3T3-L1 [1] = experiment: Inhibition of differentiation of mouse 3T3L1 cells assessed as reduction of lipid accumulation after 8 days by using Oil Red O staining by spectrophotometry relative to control; type: functional, cell-based
3T3-L1 [2] = experiment: Inhibition of differentiation of mouse 3T3L1 cells assessed as lipid accumulation at 50 uM after 8 days by using Oil Red O staining by spectrophotometry relative to control; type: functional
3T3-L1 [3] = experiment: Inhibition of differentiation of mouse 3T3L1 cells assessed as lipid accumulation at 10 uM after 8 days by using Oil Red O staining by spectrophotometry relative to control; type: functional
3T3-L1 [4] = experiment: Inhibition of differentiation of mouse 3T3L1 cells assessed as lipid accumulation at 100 uM after 8 days by using Oil Red O staining by spectrophotometry relative to control; type: functional
3T3-L1 [5] = experiment: Inhibition of differentiation of mouse 3T3L1 cells assessed as lipid accumulation at 100 uM after 8 days by using Oil Red O staining by spectrophotometry relative to control in presence of troglitazone; type: functional; design: scale not given: the % may be the effect or the level left
3T3-L1 [6] = experiment: Antiadipogenic activity in mouse 3T3L1 cells assessed as inhibition of C/EBPalpha expression at 10 to 50 uM after 8 days by Western blot analysis; type: functional, cell-based
3T3-L1 [7] = experiment: Antiadipogenic activity in mouse 3T3L1 cells assessed as inhibition of PPAR-gamma expression at 10 to 50 uM after 8 days by Western blot analysis; type: functional, cell-based
3T3-L1 [8] = experiment: Induction of differentiation of mouse 3T3L1 cells assessed as lipid accumulation at 10 uM after 8 days by using Oil Red O staining by spectrophotometry relative to control; type: cell-based; settings: 3t3-l1, 192 h
3T3-L1 [9] = experiment: Cytotoxicity against mouse 3T3L1 cells at 100 uM; type: cell-based; settings: 3t3-l1, 100 µM

## O=C(/C=C/CCc1ccc(O)c(O)c1)CCc1ccc(O)c(O)c1 [DEHYDROHIRSUTANONOL]
3T3-L1 [1]
  inhibition: Dose-dependent effect
3T3-L1 [2]
  Lipid accumulation (% of control): 45.7%
3T3-L1 [3]
  Lipid accumulation relative to control: 86.1%
3T3-L1 [4]
  Lipid accumulation (% of control): 38.6%

## OC[C@H]1O[C@@H](O[C@H](CCCCc2ccc(O)cc2)CCc2ccc(O)cc2)[C@H](O)[C@@H](O)[C@@H]1O
3T3-L1 [2]
  Lipid accumulation (% of control): 103.1%
3T3-L1 [3]
  Lipid accumulation relative to control: 76%
3T3-L1 [4]
  Lipid accumulation (% of control): 98.1%

## Oc1ccc(CCCC[C@@H](O)CCc2ccc(O)c(O)c2)cc1O
3T3-L1 [2]
  Lipid accumulation (% of control): 86.4%
3T3-L1 [3]
  Lipid accumulation relative to control: 84.6%
3T3-L1 [4]
  Lipid accumulation (% of control): 90%

## O=C(CCc1ccc(O)c(O)c1)C[C@@H](O)CCc1ccc(O)c(O)c1 [HIRSUTANONOL]
3T3-L1 [1]
  inhibition: Dose-dependent effect
3T3-L1 [2]
  Lipid accumulation (% of control): 72.6%
3T3-L1 [3]
  Lipid accumulation relative to control: 83.9%
3T3-L1 [4]
  Lipid accumulation (% of control): 59.9%

## O=C(CCc1ccc(O)cc1)C[C@H](CCc1ccc(O)cc1)O[C@@H]1OC[C@@H](O)[C@H](O)[C@H]1O
3T3-L1 [1]
  inhibition: Dose-dependent effect
3T3-L1 [5]
  Activity: 20.8%
3T3-L1 [6]
  inhibition: Active
3T3-L1 [2]
  Lipid accumulation (% of control): 28.9%
3T3-L1 [3]
  Lipid accumulation relative to control: 81.7%
3T3-L1 [4]
  Lipid accumulation (% of control): 14.4%
3T3-L1 [7]
  inhibition: Active

## O=C(/C=C/c1ccc(O)c(O)c1)C[C@@H](O)CCc1ccc(O)cc1
3T3-L1 [1]
  inhibition: Dose-dependent effect
3T3-L1 [2]
  Lipid accumulation (% of control): 81.8%
3T3-L1 [3]
  Lipid accumulation relative to control: 92.6%
3T3-L1 [4]
  Lipid accumulation (% of control): 58.8%

## O=C(/C=C/CCc1ccc(O)c(O)c1)/C=C/c1ccc(O)c(O)c1
3T3-L1 [1]
  inhibition: Dose-dependent effect
3T3-L1 [2]
  Lipid accumulation (% of control): 66.5%
3T3-L1 [3]
  Lipid accumulation relative to control: 86.5%
3T3-L1 [4]
  Lipid accumulation (% of control): 36.5%

## O=C(CCc1ccc(O)cc1)C[C@@H](O)CCc1ccc(O)c(O)c1
3T3-L1 [1]
  inhibition: Dose-dependent effect
3T3-L1 [2]
  Lipid accumulation (% of control): 70.5%
3T3-L1 [3]
  Lipid accumulation relative to control: 77.3%
3T3-L1 [4]
  Lipid accumulation (% of control): 57.6%

## O=C(O[C@@H]1Cc2c(O)cc(O)cc2O[C@@H]1c1cc(O)c(O)c(O)c1)c1cc(O)c(O)c(O)c1 [EPIGALOCATECHIN GALLATE]
3T3-L1 [2]
  Lipid accumulation (% of control): 81.9%
3T3-L1 [3]
  Lipid accumulation relative to control: 94.9%
3T3-L1 [4]
  Lipid accumulation (% of control): 54.5%

## O=C(/C=C/C=C/c1ccc(O)c(O)c1)CCc1ccc(O)c(O)c1
3T3-L1 [2]
  Lipid accumulation (% of control): 108.9%
3T3-L1 [3]
  Lipid accumulation relative to control: 104.4%
3T3-L1 [4]
  Lipid accumulation (% of control): 103%

## Cc1c(C)c2c(c(C)c1O)CCC(C)(COc1ccc(CC3SC(=O)NC3=O)cc1)O2 (stereo not drawn) [TROGLITAZONE]
3T3-L1 [8]
  Activity: 107.1%

## Oc1ccc(CC[C@@H](O)C[C@H](O)CCc2ccc(O)cc2)cc1 [(+)-HANNOKINOL]
3T3-L1 [2]
  Lipid accumulation (% of control): 61.2%
3T3-L1 [3]
  Lipid accumulation relative to control: 90.2%
3T3-L1 [9]
  Activity: Toxic
